Test results reported in ChEMBL document CHEMBL5247655, “Simplified Derivatives of Tetrandrine as Potent and Specific P-gp Inhibitors to Reverse Multidrug Resistance in Cancer Chemotherapy” (J Med Chem, 2023).
Activity calls are given as the source filed them. No cut-off for these calls is given here.

Legend:
ECa-109 cell line [1] = experiment: Reversal of vincristine-resistance in human Eca-109 cells assessed as fold reversal by measuring cell viability incubated for 48 hrs by CCK-8 method relative to vincristine alone; format: functional
[2] = Cytotoxicity against human GES1 cells incubated for 48 hrs by CCK-8 method; format: toxicity, cell-based
ECa-109 cell line [3] = experiment: Reversal of vincristine-resistance in human Eca-109 cells assessed as fold reversal by measuring cell viability at 1 uM incubated for 48 hrs by CCK-8 method relative to vincristine alone; format: functional
ECa-109 cell line [4] = experiment: Reversal of vincristine-resistance in human Eca-109 cells assessed as fold reversal by measuring cell viability at 2.5 uM incubated for 48 hrs by CCK-8 method relative to vincristine alone; format: functional
ECa-109 cell line [5] = experiment: Induction of apoptosis in vincristine resistant human Eca-109 cells assessed as viable cells at 2.5 uM incubated for 24 hrs by AnnexinV-FITC/PI staining based flow cytometric analysis (reference value: 90.3%); format: functional; details: read-out: Activity
ECa-109 cell line [6] = experiment: Induction of apoptosis in vincristine resistant human Eca-109 cells assessed as early apoptotic cells at 2.5 uM incubated for 24 hrs by AnnexinV-FITC/PI staining based flow cytometric analysis (reference value: 2.30%); format: functional
ECa-109 cell line [7] = experiment: Induction of apoptosis in vincristine resistant human Eca-109 cells assessed as necrotic cells at 2.5 uM incubated for 24 hrs by AnnexinV-FITC/PI staining based flow cytometric analysis (reference value: 0.25%); format: functional
ECa-109 cell line [8] = experiment: Induction of apoptosis in vincristine resistant human Eca-109 cells assessed as viable cells at 2.5 uM incubated for 24 hrs in presence of vincristine by AnnexinV-FITC/PI staining based flow cytometric analysis (reference value: 89.2%); format: functional; details: read-out: Activity
ECa-109 cell line [9] = experiment: Induction of apoptosis in vincristine resistant human Eca-109 cells assessed as late apoptotic cells at 2.5 uM incubated for 24 hrs in presence of vincristine by AnnexinV-FITC/PI staining based flow cytometric analysis (reference value: 6.01%); format: functional
[10] = Inhibition of clone formation in vincristine resistant human Eca-109 cells at 2 uM incubated for 48 hrs by crystal violet staining based analysis; format: functional
ECa-109 cell line [11] = experiment: Synergistic anticancer activity in vincristine resistant human Eca-109 cells assessed as combination index at 10:1 compound to vincristine ratio measured after 48 hrs; format: functional
ECa-109 cell line [12] = experiment: Synergistic antitumor activity against in vincristine resistant p-gp overexpressing human Eca-109 cells xenografted in nude mouse assessed as inhibition of tumor proliferation at 30 mg/kg, IG administered every two days for 21 days in presence of vincristine; format: functional, organism-based; details: time 21.0 day
[13] = Tmax in Sprague-Dawley rat at 3 mg/kg, iv measured upto 24 hrs by UPLC/MS/MS analysis; format: ADME, organism-based; details: in vivo
[14] = Cmax in Sprague-Dawley rat at 3 mg/kg, iv measured upto 24 hrs by UPLC/MS/MS analysis; format: ADME, organism-based; set-up: time < 24 hrs, dose 3 mg/kg, route iv; details: in vivo
[15] = Terminal elimination half life in Sprague-Dawley rat at 30 mg/kg, po measured upto 24 hrs by UPLC/MS/MS analysis; format: ADME, organism-based; details: in vivo, read-out: LambdaZ (converted)
[16] = Half life in Sprague-Dawley rat at 3 mg/kg, iv measured upto 24 hrs by UPLC/MS/MS analysis; format: ADME, organism-based; details: in vivo
[17] = MRT (0 to infinity) in Sprague-Dawley rat at 3 mg/kg, iv measured upto 24 hrs by UPLC/MS/MS analysis; format: ADME, organism-based; details: in vivo
[18] = AUC (0 to t) in Sprague-Dawley rat at 30 mg/kg, po measured upto 24 hrs by UPLC/MS/MS analysis; format: ADME, organism-based; set-up: time < 24 hrs, dose 30 mg/kg, route po; details: in vivo
[19] = AUC (0 to infinity) in Sprague-Dawley rat at 3 mg/kg, iv measured upto 24 hrs by UPLC/MS/MS analysis; format: ADME, organism-based; set-up: time < 24 hrs, dose 3 mg/kg, route iv; details: in vivo
[20] = Apparent volume of distribution during terminal phase in Sprague-Dawley rat at 30 mg/kg, po measured upto 24 hrs by UPLC/MS/MS analysis; format: ADME, organism-based; details: in vivo, read-out: Vz/F
[21] = target: T1, ATP-dependent translocase ABCB1 (Homo sapiens, UniProt P08183); experiment: Inhibition of P-gp efflux in vincristine resistant human Eca-109 cells assessed as increase in rhodamine 123 accumulation incubated for 3 hrs by DAPI staining based laser-scanning confocal microscopy analysis; format: cell-based; details: eca-109, 3 h, at 1 to 5 µM, dose 1-5 µM
[22] = target: T1, ATP-dependent translocase ABCB1; experiment: Inhibition of P-gp efflux in vincristine resistant human Eca-109 cells assessed as increase in colocalization of dox with nucleus at 1 to 5 uM incubated for 3 hrs by DAPI staining based laser-scanning confocal microscopy analysis; format: cell-based; details: eca-109, 3 h, dose 1-5 µM
[23] = target: T1, ATP-dependent translocase ABCB1; experiment: Inhibition of P-gp efflux in vincristine resistant human Eca-109 cells assessed as increase in rhodamine 123 fluorescence intensity incubated for 3 hrs; format: cell-based; details: eca-109, 3 h, dose 0-45 µM
[24] = target: T1, ATP-dependent translocase ABCB1; experiment: Inhibition of P-gp efflux in vincristine resistant human Eca-109 cells assessed as effect on accumulation of calcein-AM; format: cell-based
[25] = target: T1, ATP-dependent translocase ABCB1; experiment: Inhibition of P-gp efflux in vincristine resistant human Eca-109 cells assessed as effect on accumulation of H33342; format: cell-based
[26] = target: T1, ATP-dependent translocase ABCB1; experiment: Binding affinity to P-gp in vincristine resistant human Eca-109 cells assessed as stabilization of protein at 67 degree C at 100 uM incubated for 30 mins by thermal shift assay; format: cell-based; details: eca-109, 0.5 h
[27] = target: T2, Broad substrate specificity ATP-binding cassette transporter ABCG2 (Homo sapiens, UniProt Q9UNQ0); experiment: Binding affinity to ABCG2 in vincristine resistant human Eca-109 cells assessed as stabilization of protein at 100 uM incubated for 30 mins by thermal shift assay; format: cell-based; details: eca-109, 0.5 h
T2 sequence (Q9UNQ0 whole entry): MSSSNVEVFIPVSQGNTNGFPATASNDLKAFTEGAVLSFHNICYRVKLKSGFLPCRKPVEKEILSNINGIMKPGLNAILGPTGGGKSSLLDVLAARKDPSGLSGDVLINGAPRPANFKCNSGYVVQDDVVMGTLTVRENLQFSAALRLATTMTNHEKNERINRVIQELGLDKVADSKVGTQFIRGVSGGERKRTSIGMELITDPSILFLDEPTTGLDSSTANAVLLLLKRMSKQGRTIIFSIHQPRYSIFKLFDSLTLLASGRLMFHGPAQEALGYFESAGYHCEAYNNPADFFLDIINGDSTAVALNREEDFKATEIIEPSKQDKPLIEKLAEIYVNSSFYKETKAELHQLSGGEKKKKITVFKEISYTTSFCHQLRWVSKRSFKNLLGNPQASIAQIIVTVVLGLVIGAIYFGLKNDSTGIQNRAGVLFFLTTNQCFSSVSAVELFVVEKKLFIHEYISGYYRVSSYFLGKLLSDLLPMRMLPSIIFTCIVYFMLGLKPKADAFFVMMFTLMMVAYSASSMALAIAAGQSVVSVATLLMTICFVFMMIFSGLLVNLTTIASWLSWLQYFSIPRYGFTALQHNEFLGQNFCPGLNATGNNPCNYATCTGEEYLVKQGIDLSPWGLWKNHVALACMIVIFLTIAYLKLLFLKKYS

[28] = target: Multidrug resistance-associated protein 1 (Homo sapiens, UniProt P33527); experiment: Binding affinity to MRP1 in vincristine resistant human Eca-109 cells assessed as stabilization of protein at 100 uM incubated for 30 mins by thermal shift assay; format: cell-based; details: eca-109, 0.5 h
Multidrug resistance-associated protein 1, sequence (P33527 whole entry): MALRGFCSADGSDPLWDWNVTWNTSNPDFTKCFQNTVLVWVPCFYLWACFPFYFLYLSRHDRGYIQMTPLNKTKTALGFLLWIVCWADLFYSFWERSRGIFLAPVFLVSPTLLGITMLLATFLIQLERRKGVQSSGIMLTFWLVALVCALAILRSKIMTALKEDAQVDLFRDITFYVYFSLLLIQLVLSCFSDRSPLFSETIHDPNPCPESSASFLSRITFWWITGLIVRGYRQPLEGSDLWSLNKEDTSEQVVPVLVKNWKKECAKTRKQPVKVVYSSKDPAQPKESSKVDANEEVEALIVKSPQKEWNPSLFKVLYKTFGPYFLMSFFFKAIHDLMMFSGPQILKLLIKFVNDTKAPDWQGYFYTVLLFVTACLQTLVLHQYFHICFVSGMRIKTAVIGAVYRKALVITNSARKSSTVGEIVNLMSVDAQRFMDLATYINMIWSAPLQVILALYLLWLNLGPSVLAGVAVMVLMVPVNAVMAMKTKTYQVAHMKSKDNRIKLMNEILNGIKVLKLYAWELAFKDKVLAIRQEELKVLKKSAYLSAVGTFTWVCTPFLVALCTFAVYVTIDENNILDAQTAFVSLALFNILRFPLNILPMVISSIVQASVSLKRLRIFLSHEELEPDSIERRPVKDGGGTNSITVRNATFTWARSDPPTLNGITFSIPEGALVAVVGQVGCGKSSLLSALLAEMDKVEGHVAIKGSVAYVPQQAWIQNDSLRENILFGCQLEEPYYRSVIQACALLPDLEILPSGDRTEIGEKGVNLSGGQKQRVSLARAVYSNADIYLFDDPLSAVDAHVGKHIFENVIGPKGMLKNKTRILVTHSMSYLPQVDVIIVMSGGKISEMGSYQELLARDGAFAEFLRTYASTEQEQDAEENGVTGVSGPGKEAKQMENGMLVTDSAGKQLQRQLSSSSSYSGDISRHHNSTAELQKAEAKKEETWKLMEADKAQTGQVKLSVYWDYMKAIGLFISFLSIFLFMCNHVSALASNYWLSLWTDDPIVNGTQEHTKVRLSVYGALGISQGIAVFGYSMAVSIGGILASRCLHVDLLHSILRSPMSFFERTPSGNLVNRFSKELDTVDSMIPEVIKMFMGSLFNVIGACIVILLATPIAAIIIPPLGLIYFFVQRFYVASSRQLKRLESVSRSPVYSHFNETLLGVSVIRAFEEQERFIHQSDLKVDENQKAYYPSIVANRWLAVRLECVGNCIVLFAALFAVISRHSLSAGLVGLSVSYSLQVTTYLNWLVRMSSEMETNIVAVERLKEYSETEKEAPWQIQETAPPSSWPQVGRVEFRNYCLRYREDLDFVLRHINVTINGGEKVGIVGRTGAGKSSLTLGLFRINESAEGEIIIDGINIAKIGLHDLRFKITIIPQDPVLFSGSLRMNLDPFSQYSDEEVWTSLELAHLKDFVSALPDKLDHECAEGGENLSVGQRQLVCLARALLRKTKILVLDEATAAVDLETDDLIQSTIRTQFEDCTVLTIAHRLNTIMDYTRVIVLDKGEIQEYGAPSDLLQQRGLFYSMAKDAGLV

T1 sequence (P08183 whole entry): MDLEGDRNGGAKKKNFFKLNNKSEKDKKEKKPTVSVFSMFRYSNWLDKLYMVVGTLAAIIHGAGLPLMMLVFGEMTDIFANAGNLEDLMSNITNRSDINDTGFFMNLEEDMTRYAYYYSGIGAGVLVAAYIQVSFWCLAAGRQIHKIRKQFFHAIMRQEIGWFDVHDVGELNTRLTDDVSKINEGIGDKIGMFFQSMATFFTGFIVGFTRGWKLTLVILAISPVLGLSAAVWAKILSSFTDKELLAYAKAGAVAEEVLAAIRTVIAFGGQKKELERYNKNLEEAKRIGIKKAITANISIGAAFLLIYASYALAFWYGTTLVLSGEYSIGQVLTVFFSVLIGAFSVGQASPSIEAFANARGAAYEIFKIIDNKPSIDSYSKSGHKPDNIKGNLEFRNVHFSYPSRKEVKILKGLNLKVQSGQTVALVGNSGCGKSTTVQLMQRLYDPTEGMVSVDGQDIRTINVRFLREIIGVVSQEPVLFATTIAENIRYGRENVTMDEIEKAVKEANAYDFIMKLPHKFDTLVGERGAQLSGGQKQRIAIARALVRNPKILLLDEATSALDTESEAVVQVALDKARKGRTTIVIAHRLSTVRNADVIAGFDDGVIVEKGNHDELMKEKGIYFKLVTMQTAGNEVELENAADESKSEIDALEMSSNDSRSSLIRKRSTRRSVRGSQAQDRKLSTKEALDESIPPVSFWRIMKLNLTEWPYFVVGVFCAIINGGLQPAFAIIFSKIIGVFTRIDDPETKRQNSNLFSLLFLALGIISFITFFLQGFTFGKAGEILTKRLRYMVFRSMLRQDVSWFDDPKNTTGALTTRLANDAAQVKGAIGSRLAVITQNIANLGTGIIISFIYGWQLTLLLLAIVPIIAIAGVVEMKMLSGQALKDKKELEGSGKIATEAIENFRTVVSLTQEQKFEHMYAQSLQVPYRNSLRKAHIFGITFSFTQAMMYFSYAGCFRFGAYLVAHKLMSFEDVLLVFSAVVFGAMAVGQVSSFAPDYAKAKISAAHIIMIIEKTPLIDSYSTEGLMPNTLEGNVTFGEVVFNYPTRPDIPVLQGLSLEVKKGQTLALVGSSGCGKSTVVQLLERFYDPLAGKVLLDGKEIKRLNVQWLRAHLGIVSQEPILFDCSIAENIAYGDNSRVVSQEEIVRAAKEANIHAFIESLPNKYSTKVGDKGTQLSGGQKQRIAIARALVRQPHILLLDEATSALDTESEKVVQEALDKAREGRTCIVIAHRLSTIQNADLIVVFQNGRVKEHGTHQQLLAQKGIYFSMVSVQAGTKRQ

Tmax [13]: 0.17 h
Cmax [14]: 1570 ng/mL
k el at 24 h [15]: 3.33e-05 s⁻¹
half-life [16]: 8.43 h
MRT inf [17]: 2.68 h
AUC(0-t) at 24 h [18]: 2670 ng·h/mL
AUC(0-inf) [19]: 2740 ng·h/mL
Vd/F [20]: 111 L/kg
inhibition (INH) [21]: Dose-Dependent Effect
inhibition (INH) [22]: Active
inhibition (INH) [23]: Dose-Dependent Effect
inhibition (INH) [24]: Active
inhibition (INH) [25]: Active
Activity [26]: Active
Activity [27]: Not Active
Activity [28]: Not Active
Structure (SMILES): COc1cc2c(cc1OC)C(Cc1ccc(OC)c(OCc3ccccc3)c1)N(C)CC2 (stereo not drawn)
fold change (FC) (ECa-109 cell line [1]): 690.6
IC50 at 48 h [2]: > 50 µM
fold change (FC) (ECa-109 cell line [3]): 3.7
fold change (FC) (ECa-109 cell line [4]): 103.4
viability at 2.5 µM (ECa-109 cell line [5]): 91.9%
Activity (ECa-109 cell line [6]): 2.26%
Activity (ECa-109 cell line [7]): 0.11%
viability at 2.5 µM (ECa-109 cell line [8]): 70.5%
Activity (ECa-109 cell line [9]): 11.3%
inhibition at 2 µM [10]: 100%
CI (ECa-109 cell line [11]): <1
Activity (ECa-109 cell line [12]): Active
